test system: NL4-3 strain of HIV-1; assay: HIV-1 replication inhibition: cyto-protection of MT4 cells infected with NL4-3 virus (CellTiter-Glo viability assay); format: cell-based; conditions: Human immunodeficiency virus 1, NL43, 120 h, concentration leading to 50% of cyto-protection, 5 days incubation
Experimental: The antiviral activity, particularly against HIV, of compounds according to the invention is evaluated by the protocol described below.
Preparation of Virus Stock of the NL4-3 Strain of HIV-1
The virus was prepared as described in Lopez et al (Lopez et al, Proc Natl Acad Sci USA., 2006, 103(40):14947-52, by transfecting 2×10^6 293 T cells (CRL-1573, ATCC) with following modifications: 6 μg of NL4-3 proviral DNA molecular clone were mixed with Fugene 6 transfection reagent from Roche, and used according to manufacturer's instructions. Forty eight hours later, transfected cell supernatants were harvested, filtered through 0.45-μm-pore-size filters, quantified for HIV-1 p24 antigen by using a Innotest HIV antigen mAb assay (Ingen) according to manufacturer's instructions, and used in infection experiments.
Preparation of Compounds:
Serial dilutions of compounds to be tested were prepared in complete RPMI medium from 10 mM DMSO stock solutions, and distributed in a volume of 20 µl in 96 well Falcon 353072 Microtest™ tissue culture plate, in order to get 0.5% DMSO final concentration in each well, after the addition of infected cells. Control wells contained also 0.5% DMSO final concentration but no compound.
MT4 cells (from the NIH AIDS Research and Reference Reagent Program) in RPMI complete medium were counted (10×10^6 cells per well in Falcon 353047 Multiwell™ 24 well) and infected for 2 hours at 37°, at a multiplicity of infection (moi) of 0.0001-0.00001. Cells were then centrifuged 3 min at 3000 rpm, and washed two times in 1 ml PBS to remove viruses that have not entered in cells. Infected cells were resuspended in complete RPMI at 1.25×10^6 cells/ml, and 80 µl of infected cells were distributed in each well containing compounds to be tested or control wells. The plates were then incubated at 37° for 5 days.
Assay Used to Measure the Inhibition of HIV Replication by the Compounds
(according to Gregg S. Jones et al., Antimicrobial Agents and Chemotherapy, 2009, 53 (3): 1194-1203).
After 5 days of incubation, […] of CellTiter-Glo reagent (Promega Biosciences, Inc., Madison Wis., USA) were added to each well. Cell lysis was carried out at room temperature during 10 min, 150 μl of lysates were transferred in Packard Optiplate 96 well, and luminescence was read on a Fluoroskan (Thermo Scientific).

`Cc1sc(-c2ccc(F)cc2)c(-c2ccc3c(c2)CCCO3)c1C(OC(C)(C)C)C(=O)O` (stereo not shown) [Example 2, 2-(tert-butoxy)-2-[4-(3,4-dihydro-2H-1-benzopyran-6-yl)-5-(4-fluorophenyl)-2-methylthiophen-3-yl]acetic acid] was tested. Which EC50 did it give?
The EC50 was 190 nM.

How did the EC50 turn out when `Cc1sc(-c2ccsn2)c(C2=CCC(C)(C)CC2)c1C(OC(C)(C)C)C(=O)O` (stereo not shown) [Example 58, 2-(tert-butoxy)-2-{2-methyl-4-[4,4-dimethylcyclohex-1-en-1-yl]-5-(isothiazol-3-yl)thiophen-3-yl}acetic acid] was run?
The EC50 was 110 nM.

For `COC1(C)CC=C(c2c(-c3cnc4c(c3)CCCO4)sc(C)c2C(OC(C)(C)C)C(=O)O)CC1` (stereo not shown) [Example 82, 2-(tert-butoxy)-2-[4-(4-methoxy-4-methylcyclohex-1-en-1-yl)-2-methyl-5-{2H,3H,4H-pyrano[2,3-b]pyridin-6-yl}thiophen-3-yl]acetic acid], which EC50 is on record?
Its EC50 is 1000 nM.

For `Cc1sc(-c2ccc(S(N)(=O)=O)cc2)c(C2=CCC(C)(C)CC2)c1C(OC(C)(C)C)C(=O)O` (stereo not shown) [Example 32, 2-(tert-butoxy)-2-[4-(4,4-dimethylcyclohex-1-en-1-yl)-2-methyl-5-(benzenesulfonamide-4-yl)thiophen-3-yl]acetic acid], which EC50 is on record?
Its EC50 is 430 nM.

Which EC50 does the source give for `Cc1ccnc(-c2sc(C)c(C(OC(C)(C)C)C(=O)O)c2C2=CCC(C)(C)CC2)c1` (stereo not shown) [Example 72, 2-(tert-butoxy)-2-{2-methyl-4-[4,4-dimethylcyclohex-1-en-1-yl]-5-(4-methylpyridin-2-yl)thiophen-3-yl}acetic acid] here?
The EC50 was 2300 nM.

How did the EC50 turn out when `Cc1sc(-c2cnn(Cc3ccccc3)c2)c(-c2ccc3c(c2)CCCO3)c1C(OC(C)(C)C)C(=O)O` (stereo not shown) [Example 80, 2-[5-(1-benzyl-1H-pyrazol-4-yl)-4-(3,4-dihydro-2H-1-benzopyran-6-yl)-2-methylthiophen-3-yl]-2-(tert-butoxy)acetic acid] was run?
The EC50 was 6200 nM.

For `CC(C)(C)OC(C(=O)O)c1c(CO)sc(-c2ccncc2)c1-c1ccc2c(c1)CCCO2` (stereo not shown) [Example 38, 2-(tert-butoxy)-2-[4-(3,4-dihydro-2H-1-benzopyran-6-yl)-2-(hydroxymethyl)-5-(pyridin-4-yl)thiophen-3-yl]acetic acid], which EC50 is on record?
The EC50 was 2300 nM.

Which EC50 does the source give for `Cc1sc(-c2cscn2)c(C2=CCC(C)(C)CC2)c1C(OC(C)(C)C)C(=O)O` (stereo not shown) [Example 54, 2-(tert-butoxy)-2-{2-methyl-4-[4,4-dimethylcyclohex-1-en-1-yl]-5-(thiazol-4-yl)thiophen-3-yl}acetic acid] here?
The EC50 was 470 nM.

Which EC50 does the source give for `Cc1sc(-c2cccn2C)c(-c2ccc3c(c2)CCCO3)c1C(OC(C)(C)C)C(=O)O` (stereo not shown) [Example 81, 2-(tert-butoxy)-2-[4-(3,4-dihydro-2H-1-benzopyran-6-yl)-2-methyl-5-(1-methyl-1H-pyrrol-2-yl)thiophen-3-yl]acetic acid] here?
The EC50 was 2500 nM.

Which EC50 does the source give for `Cc1sc(-c2cc(F)c3c(c2)CCCO3)c(-c2cc(F)c3c(c2)CCCO3)c1C(OC(C)(C)C)C(=O)O` (stereo not shown) [Example 75, 2-[4,5-bis(8-fluoro-3,4-dihydro-2H-1-benzopyran-6-yl)-2-methylthiophen-3-yl]-2-(tert-butoxy)acetic acid] here?
Its EC50 is 2400 nM.

With `Cc1sc(-c2ccc(C(=O)N(C)C)cc2)c(C2=CCC(C)(C)CC2)c1C(OC(C)(C)C)C(=O)O` (stereo not shown) [Example 76] as the compound, how does the EC50 read?
The EC50 was 3300 nM.

`Cc1sc(-c2ccc(=O)n(C)c2)c(C2=CCC(C)(C)CC2)c1C(OC(C)(C)C)C(=O)O` (stereo not shown) [Example 30] was tested. Which EC50 did it give?
Its EC50 is 70 nM.

Which EC50 does the source give for `CCCn1cc(-c2sc(C)c(C(OC(C)(C)C)C(=O)O)c2C2=CCC(C)(C)CC2)ccc1=O` (stereo not shown) [Example 35] here?
The EC50 was 340 nM.

With `Cc1sc(-c2nsc(Cl)c2C)c(C2=CCC(C)(C)CC2)c1C(OC(C)(C)C)C(=O)O` (stereo not shown) [Example 62, 2-(tert-butoxy)-2-{2-methyl-4-[4,4-dimethylcyclohex-1-en-1-yl]-5-(5-chloro-4-methyl-isothiazol-3-yl)thiophen-3-yl}acetic acid] as the compound, how does the EC50 read?
The EC50 was 820 nM.

How did the EC50 turn out when `Cc1sc(-c2cccnc2)c(-c2ccc3c(c2)CCCO3)c1C(OC(C)(C)C)C(=O)O` (stereo not shown) [Example 8, 2-(tert-butoxy)-2-[4-(3,4-dihydro-2H-1-benzopyran-6-yl)-2-methyl-5-(pyridin-3-yl)thiophen-3-yl)acetic acid] was run?
The EC50 was 270 nM.

With `Cc1sc(-c2ccncc2)c(-c2cc(F)c3c(c2C)CCCO3)c1C(OC(C)(C)C)C(=O)O` (stereo not shown) [Example 39, 2-(tert-butoxy)-2-[4-(8-fluoro-5-methyl-3,4-dihydro-2H-1-benzopyran-6-yl)-2-methyl-5-(pyridin-4-yl)thiophen-3-yl]acetic acid] as the compound, how does the EC50 read?
Its EC50 is 730 nM.

For `Cc1sc(-c2ccc(S(=O)(=O)N(C)C)cc2)c(C2=CCC(C)(C)CC2)c1C(OC(C)(C)C)C(=O)O` (stereo not shown) [Example 77, 2-(tert-butoxy)-2-[4-(4,4-dimethylcyclohex-1-en-1-yl)-5-[4-(dimethylsulfamoyl)phenyl]-2-methylthiophen-3-yl]acetic acid], which EC50 is on record?
The EC50 was 4400 nM.

For `CNC(=O)c1ccc(-c2sc(C)c(C(OC(C)(C)C)C(=O)O)c2C2=CCC(C)(C)CC2)cc1` (stereo not shown) [Example 29, 2-(tert-butoxy)-2-[4-(4,4-dimethylcyclohex-1-en-1-yl)-2-methyl-5-(N-methyl-4-aminocarbonylphenyl)thiophen-3-yl]acetic acid], which EC50 is on record?
The EC50 was 90 nM.

`Cc1sc(-c2ccncc2)c(C2=CCC(C)(CF)CC2)c1C(OC(C)(C)C)C(=O)O` (stereo not shown) [Example 53, [4-(4-fluoromethyl-4-methylcyclohex-1-enyl)-2-methyl-5-pyridin-4-yl-thiophen-3-yl]-tert-butoxy-acetic acid] was tested. Which EC50 did it give?
The EC50 was 70 nM.

Which EC50 does the source give for `Cc1cc(-c2sc(C)c(C(OC(C)(C)C)C(=O)O)c2-c2ccc3c(c2)CCCO3)ccn1` (stereo not shown) [Example 14, 2-(tert-butoxy)-2-[4-(3,4-dihydro-2H-1-benzopyran-6-yl)-2-methyl-5-(2-methylpyridin-4-yl)thiophen-3-yl]acetic acid] here?
Its EC50 is 480 nM.

For `Cc1sc(-c2ccccc2)c(-c2ccc3c(c2)CCCO3)c1C(OC(C)(C)C)C(=O)O` (stereo not shown) [Example 1, 2-(tert-butoxy)-2-[4-(3,4-dihydro-2H-1-benzopyran-6-yl)-2-methyl-5-phenylthiophen-3-yl]acetic acid], which EC50 is on record?
The EC50 was 260 nM.

Which EC50 does the source give for `Cc1sc(-c2ccncc2)c(C2=CCC3(CC2)CC3)c1C(OC(C)(C)C)C(=O)O` (stereo not shown) [Example 12, 2-(tert-butoxy)-2-[2-methyl-5-(pyridin-4-yl)-4-{spiro[2,5]oct-5-en-6-yl}thiophen-3-yl]acetic acid] here?
Its EC50 is 130 nM.

Which EC50 does the source give for `CCCc1sc(C)c(C(OC(C)(C)C)C(=O)O)c1-c1ccc2c(c1)CCCO2` (stereo not shown) [Example 65] here?
The EC50 was 1400 nM.

`Cc1sc(C2=CCCC2)c(C2=CCC(C)(C)CC2)c1C(OC(C)(C)C)C(=O)O` (stereo not shown) [Example 59, 2-(tert-butoxy)-2-[4-(4,4-dimethylcyclohex-1-en-1-yl)-5-(cyclopenten-1-yl)-2-methylthiophen-3-yl]acetic acid] was tested. Which EC50 did it give?
The EC50 was 670 nM.

How did the EC50 turn out when `COc1ccc(-c2sc(C)c(C(OC(C)(C)C)C(=O)O)c2-c2ccc3c(c2)CCCO3)cn1` (stereo not shown) [Example 79, 2-(tert-butoxy)-2-[4-(3,4-dihydro-2H-1-benzopyran-6-yl)-5-(6-methoxypyridin-3-yl)-2-methylthiophen-3-yl]acetic acid] was run?
Its EC50 is 1500 nM.

Which EC50 does the source give for `CCOC(C(=O)O)c1c(C)sc(-c2ccncc2)c1C1=CCC(C)(C)CC1` (stereo not shown) [Example 64, 2-[4-(4,4-dimethylcyclohex-1-en-1-yl)-2-methyl-5-(pyridin-4-yl)thiophen-3-yl]-2-ethoxyacetic acid] here?
The EC50 was 710 nM.

`Cc1sc(-c2ccc(=O)n(Cc3ccccc3)c2)c(C2=CCC(C)(C)CC2)c1C(OC(C)(C)C)C(=O)O` (stereo not shown) [Example 34] was tested. Which EC50 did it give?
Its EC50 is 750 nM.

With `Cc1sc(-c2ccncc2)c(-c2cc(F)c3c(c2)CCCO3)c1C(OC(C)(C)C)C(=O)O` (stereo not shown) [Example 40, 2-(tert-butoxy)-2-[4-(8-fluoro-3,4-dihydro-2H-1-benzopyran-6-yl)-2-methyl-5-(pyridin-4-yl)thiophen-3-yl]acetic acid] as the compound, how does the EC50 read?
The EC50 was 360 nM.

From patent publication US9562033B2, “Inhibitors of viral replication, their process of preparation and their therapeutical uses” (LABORATOIRE BIODIM, priority 2012, dated 2017)
